Measurements taken from patent publication US20260102359A1, “COMBINATION TREATMENT OF DERMAL AND TRANSDERMAL FIBROTIC DISEASES, DISORDERS AND ASSOCIATED PAIN AND INFLAMMATION” (ERESINA, LLC, priority 2022, published 2026).

test system: hDMFa myofibroblast cells

| Structure (SMILES) | Compound Myofibroblast Cytotoxicity Activity |
| --- | --- |
| OC1OC[C@H](O)[C@H](O)[C@H]1O (mixture of isomers) [Cmpd 560, L-Arabinose] | ++++ |
| OC[C@H]1O[C@H](O[C@H]2[C@H](O)[C@@H](O)[C@@H](O[C@H]3[C@H](O)[C@@H](O)C(O)O[C@@H]3CO)O[C@@H]2CO)[C@H](O)[C@@H](O)[C@@H]1O (mixture of isomers) [Cmpd 634, Maltotriose] | +++ |
| CC(C)NCC(O)COc1ccc(CC(N)=O)cc1 (racemic) [Cmpd 14, (±)-Atenolol] | +++ |
| CC1CCC(C(C)C)C(O)C1 (racemic) [Cmpd 16, (±)-Menthol] | ++ |
| CCCCCCCCCCCCCCCC(=O)OC(CC(=O)O)C[N+](C)(C)C.[Cl-] (racemic) [Cmpd 17, (±)-Palmitoylcarnitine chloride] | ++ |
| CC1=CCC2CC1C2(C)C (racemic) [Cmpd 18, (±)-α-Pinene] | ++ |
| O[C@H](CS)[C@H](O)CS (racemic) [Cmpd 368, DL-Dithiothreitol] | ++++ |
| CSCCC(N)C(=O)O (racemic) [Cmpd 369, DL-Methionine] | ++ |
| CC(C)(CO)C(O)C(=O)NCCCO (racemic) [Cmpd 370, DL-Panthenol] | +++ |
| Cl.NCCCC(N)(C(=O)O)C(F)F (racemic) [Cmpd 371, DL-α-Difluoromethylornithine (hydrochloride hydrate)] | ++ |
| Cc1c(C)c2c(c(C)c1O)CCC(C)(CCCC(C)CCCC(C)CCCC(C)C)O2 (racemic) [Cmpd 373, DL-α-Tocopherol] | ++ |
| CCC/C=C1\OC(=O)C2=C1CCC=C2 [Cmpd 2, Z-Ligustilide] | ++ |
| C/C=C/c1cc(OC)c(OC)cc1OC [Cmpd 3, α-Asarone] | ++ |
| C=C1CC/C=C(\C)CC[C@@H]2[C@@H]1CC2(C)C [Cmpd 8, β-Caryophyllene] | +++ |
| CCCCC/C=C\C/C=C\C/C=C\CCCCC(=O)O [Cmpd 9, γ-Linolenic Acid] | +++ |
| CC12CCC(CC1=O)C2(C)C (stereo not drawn) [Cmpd 11, (+)-Camphor] | ++ |
| CC1=CC[C@@H]2C[C@H]1C2(C)C [Cmpd 19, (1R)-(+)-α-Pinene] | + |
| CC1=CC(=O)[C@H]2C[C@@H]1C2(C)C [Cmpd 20, (1S)-(−)-Verbenone] | ++ |
| CC1=CC[C@H]2C[C@@H]1C2(C)C [Cmpd 21, (1S)-(-)-α-Pinene] | ++ |
| C=C1CC[C@H]2C[C@@H]1C2(C)C [Cmpd 22, (1S)-(-)-β-Pinene] | ++ |
| Cl.N[C@H](C=O)[C@@H](O)[C@H](O)[C@H](O)CO [Cmpd 23, (2S,3R,4S,5R)-2-Amino-3,4,5,6-tetrahydroxyhexanal hydrochloride] | ++ |
| C=C(C)[C@@H]1CC=C(C)C(=O)C1 [Cmpd 24, (R)-(−)-Carvone] | ++ |
| C[C@@H](Oc1cc(-c2cnn(C3CCNCC3)c2)cnc1N)c1c(Cl)ccc(F)c1Cl [Cmpd 27, (R)-Crizotinib] | ++++ |
| C=C(C)[C@H]1CC=C(C)C(=O)C1 [Cmpd 28, (S)-(+)-Carvone] | ++ |
| C[C@H](Oc1cc(-c2cnn(C3CCNCC3)c2)cnc1N)c1c(Cl)ccc(F)c1Cl [Cmpd 29, (S)-Crizotinib] | ++++ |
| C[C@H](C(=O)O)c1ccc(-c2ccccc2)c(F)c1 [Cmpd 30, (S)-Flurbiprofen] | ++++ |

| Structure (SMILES) | Compound Myofibroblast Cytotoxicity Activity |
| --- | --- |
| COc1ccc2cc([C@H](C)C(=O)O)ccc2c1 [Cmpd 32, (S)-Naproxen] | ++ |
| CCCCCCCC/C=C\CCCCCCCC(=O)OCC(C[N+](C)(C)C)OC(=O)CCCCCCC/C=C\CCCCCCCC.[Cl-] (stereo not drawn) [Cmpd 33, 1,2-Dioleoyl-3-trimethylammoniumpropane (chloride)] | +++ |
| Oc1ncnc2[nH]ncc12 [Cmpd 37] | + |
| C=CCCCCCCCCC(=O)O [Cmpd 39, 10-Undecenoic acid] | ++ |
| C=CCNC1=C2C[C@@H](C)C[C@H](OC)[C@H](O)[C@@H](C)/C=C(\C)[C@H](OC(N)=O)[C@@H](OC)/C=C\C=C(/C)C(=O)NC(=CC1=O)C2=O [Cmpd 40, 17-AAG (KOS953)] | +++ |
| CCCCCCCCCCCCCCO [Cmpd 43, 1-Tetradecanol] | + |
| O=CC[C@H](O)[C@H](O)CO [Cmpd 46, 2-Deoxy-D-ribose] | ++++ |
| O=c1ccn([C@H]2C[C@H](O)[C@@H](CO)O2)c(=O)[nH]1 [Cmpd 47, 2-Deoxyuridine] | ++ |
| O=C(O)c1cc(O)cc(O)c1 [Cmpd 50, 3-5-Dihydroxybenzoic Acid] | ++ |
| CC(=O)O[C@@H]1CC[C@@]2(C)[C@@H](CC[C@]3(C)[C@@H]2C(=O)C=C2[C@@H]4[C@@H](C)[C@H](C)CC[C@]4(C)CC[C@]23C)[C@@]1(C)C(=O)O [Cmpd 51, 3-acetyl-11-keto-β-Boswellic Acid] | +++++ |
| Cc1occc(=O)c1O [Cmpd 52] | ++ |
| CCCCC1OC(=O)c2ccccc21 (stereo not drawn) [Cmpd 54, 3-n-Butylphathlide] | ++ |
| NCc1ccc(C(=O)O)cc1 [Cmpd 56] | ++ |
| Nc1ccc(C(=O)O)c(O)c1 [Cmpd 59, 4-Aminosalicylic acid] | ++ |
| O=C(O)Cc1ccc(-c2ccccc2)cc1 [Cmpd 60, 4-Biphenylacetic acid] | ++ |
| O=C(O)c1ccc(O)cc1 [Cmpd 61] | ++++ |
| Cc1cc(=O)oc2cc(O)ccc12 [Cmpd 63, 4-Methylumbelliferone (4-MU)] | ++++ |
| Nc1ncn([C@@H]2O[C@H](CO)[C@@H](O)[C@H]2O)c(=O)n1 [Cmpd 64, 5-Azacytidine] | +++ |
| O=Cc1ccc(CO)o1 [Cmpd 66] | ++ |
| O=c1ccc2cc(O)c(O)cc2o1 [Cmpd 69] | ++ |
| Br.NCCc1cc(O)c(O)cc1O [Cmpd 72] | ++++ |
| Oc1cccc2cccnc12 [Cmpd 74, 8-Hydroxyquinoline] | ++ |
| CC(=O)O[C@H]1CC[C@@]2(C)C(=CC[C@@H]3[C@@H]2CC[C@]2(C)C(c4cccnc4)=CC[C@@H]32)C1 [Cmpd 75, Abiraterone acetate] | +++ |
| CC1(C)CCC(c2ccc(Cl)cc2)=C(CN2CCN(c3ccc(C(=O)NS(=O)(=O)c4ccc(N[C@H](CCN5CCOCC5)CSc5ccccc5)c(S(=O)(=O)C(F)(F)F)c4)cc3)CC2)C1 [Cmpd 77, ABT-263 (Navitoclax)] | +++++ |
| CC(=O)Nc1ccccc1 [Cmpd 79, Acetanilide] | ++++ |
